pIC50: −log10 of the molar value.

For this assay, the target named is T1, human CCR6 (Homo sapiens, UniProt P51684).
T1 construct: expressed in transfected cells; host or cells: Ba/F3 cells (murine pro-B line), hCCR6-transfected, CMV promoter, sodium butyrate induction
T1 sequence (P51684 1-374): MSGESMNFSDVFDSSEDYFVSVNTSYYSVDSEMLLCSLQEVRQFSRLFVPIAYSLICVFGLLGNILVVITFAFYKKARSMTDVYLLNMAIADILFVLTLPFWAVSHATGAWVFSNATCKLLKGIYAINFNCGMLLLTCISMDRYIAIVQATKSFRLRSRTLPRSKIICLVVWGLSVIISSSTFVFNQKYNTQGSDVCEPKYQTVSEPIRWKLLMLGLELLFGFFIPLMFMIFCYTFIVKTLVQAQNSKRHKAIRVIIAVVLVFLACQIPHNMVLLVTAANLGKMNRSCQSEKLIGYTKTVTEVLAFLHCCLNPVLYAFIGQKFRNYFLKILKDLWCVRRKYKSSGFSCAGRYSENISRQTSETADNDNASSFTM
The experiment in a line: Migration (chemotaxis) assay, hCCR6-transfected Ba/F3 cells toward CCL20. The assay is classed as cell-based. As to conditions: hCCR6-transfected Ba/F3 cells in human serum; recombinant human CCL20 10 nM; 37° C. 45 minutes; read-out: Potency (IC50 value in the migration assay). The method in brief:
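Ba/F3 cells stably transfected with human CCR6 (CMV promoter), pre-induced 24 hr with sodium butyrate, suspended at 4 million/ml in human serum with test compound serially diluted from 10 μM final. Migration through 5-μm polycarbonate membrane toward 10 nM CCL20 (EC50) for 45 min at 37 °C; migrated cells quantified by CyQUANT fluorescence.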
Turning to `O=C1NC(=O)C2(CCN(c3ccc(S(=O)(=O)N4CCC(Nc5ccc(C(F)(F)F)cn5)CC4)cc3)CC2)N1` [Example 1.151], the pIC50 was above 8.30.

Take `O=C1CC2(CCN(c3ccc(S(=O)(=O)N4CCC(Nc5ccc(C(F)(F)F)cn5)CC4)cc3)CC2)CC(=O)N1` [Example 1.152]: the pIC50 is above 8.30.

With `O=C1NCCC12CCN(c1ccc(S(=O)(=O)N3CCC(Nc4ccc(C(F)(F)F)cn4)CC3)cc1)CC2` [Example 1.153], the pIC50 was 7.00 to 8.30.

On to `NC(=O)N1CC2(C1)CN(c1ccc(S(=O)(=O)N3CCC(Nc4ccc(C(F)(F)F)cn4)CC3)cc1)C2` [Example 1.154], for which the pIC50 was above 8.30.

`NC(=O)CC1CCN(c2ccc(S(=O)(=O)N3CCC(Nc4ccc(C(F)(F)F)cn4)CC3)cc2)CC1` [Example 1.155]: the pIC50 is above 8.30.

In the case of `O=S(=O)(c1ccc(N2CCC(O)CC2)cc1)N1CCC(Nc2ccc(C(F)(F)F)cn2)CC1` [Example 1.156], the pIC50 was 7.00 to 8.30.

Turning to `CN1CCC2(CCN(c3ccc(S(=O)(=O)N4CCC(Nc5ccc(C(F)(F)F)cn5)CC4)cc3)CC2)C1=O` [Example 1.157], the pIC50 is 7.00 to 8.30.

In the case of `O=S(=O)(c1ccc(N2CCC3(CC2)CC(O)C3)cc1)N1CCC(Nc2ccc(C(F)(F)F)cn2)CC1` [Example 1.158], the pIC50 was 7.00 to 8.30.

Consider `NC(=O)NC1CC2(C1)CN(c1ccc(S(=O)(=O)N3CCC(Nc4ccc(C(F)(F)F)cn4)CC3)cc1)C2` [Example 1.159], for which the pIC50 is 5.00 to 7.00.

Regarding `CS(=O)(=O)NC1CC2(C1)CN(c1ccc(S(=O)(=O)N3CCC(Nc4ccc(C(F)(F)F)cn4)CC3)cc1)C2` [Example 1.161], the pIC50 is 7.00 to 8.30.

`NC(=O)[C@H]1[C@@H]2CN(c3ccc(S(=O)(=O)N4CCC(Nc5ccc(C(F)(F)F)cn5)CC4)cc3)C[C@@H]21` [Example 1.162]: the pIC50 is 5.00 to 7.00.

As for `CC(=O)NC1CC2(C1)CN(c1ccc(S(=O)(=O)N3CCC(Nc4ccc(C(F)(F)F)cn4)CC3)cc1)C2` [Example 1.163], the pIC50 was 7.00 to 8.30.

For `CC(=O)NCC(=O)N1CCN(c2ccc(S(=O)(=O)N3CCC(Nc4ccc(C(F)(F)F)cn4)CC3)cc2)CC1` [Example 1.164], the pIC50 is 5.00 to 7.00.

Take `O=C1NCCCC12CCN(c1ccc(S(=O)(=O)N3CCC(Nc4ccc(C(F)(F)F)cn4)CC3)cc1)CC2` [Example 1.165]: the pIC50 was above 8.30.

For `NC(=O)C1(O)CCN(c2ccc(S(=O)(=O)N3CCC(Nc4ccc(C(F)(F)F)cn4)CC3)cc2)CC1` [Example 1.166], the pIC50 is 7.00 to 8.30.

Regarding `NC(=O)CC1CCN(c2ccc(S(=O)(=O)N3CCC(Nc4ccc(C(F)(F)F)cn4)CC3)cc2)CC1` [Example 1.167], the pIC50 is 7.00 to 8.30.

Turning to `O=S(=O)(c1ccc(N2CCC(O)(CO)CC2)cc1)N1CCC(Nc2ccc(C(F)(F)F)cn2)CC1` [Example 1.168], the pIC50 was 7.00 to 8.30.

Turning to `N#CC1CCN(c2ccc(S(=O)(=O)N3CCC(Nc4ccc(C(F)(F)F)cn4)CC3)cc2)CC1` [Example 1.171], the pIC50 is 5.00 to 7.00.

`O=C1NCCC12CCN(c1ccc(S(=O)(=O)N3CCC(Nc4ccc(C(F)(F)F)cn4)CC3)cc1)CC2` [Example 1.172]: the pIC50 is above 8.30.

With `NC(=O)C(=O)N1CCN(c2ccc(S(=O)(=O)N3CCC(Nc4ccc(C(F)(F)F)cn4)CC3)cc2)CC1` [Example 1.173], the pIC50 is 7.00 to 8.30.

Take `O=S(=O)(c1ccc(N2CCN(c3nnc[nH]3)CC2)cc1)N1CCC(Nc2ccc(C(F)(F)F)cn2)CC1` [Example 1.174]: the pIC50 is 5.00 to 7.00.

Turning to `NC(=O)N1CCC2(CCN(c3ccc(S(=O)(=O)N4CCC(Nc5ccc(C(F)(F)F)cn5)CC4)cc3)C2)C1` (stereo not drawn) [Example 1.175], the pIC50 was 7.00 to 8.30.

For the compound `NC(=O)N1C[C@@H]2CN(c3ccc(S(=O)(=O)N4CCC(Nc5ccc(C(F)(F)F)cn5)CC4)cc3)C[C@@H]2C1` [Example 1.176], the pIC50 was 7.00 to 8.30.

Turning to `O=C1NC(=O)N2CCN(c3ccc(S(=O)(=O)N4CCC(Nc5ccc(C(F)(F)F)cn5)CC4)cc3)CC12` (stereo not drawn) [Example 1.177], the pIC50 was 7.00 to 8.30.

Consider `CS(=O)(=O)N1CCCC(c2ccc(S(=O)(=O)N3CCC(Nc4ccc(C(F)(F)F)cn4)CC3)cc2)C1` (stereo not drawn) [Example 1.179], for which the pIC50 is 7.00 to 8.30.

Turning to `O=S(=O)(c1ccc(N2[C@@H]3CC[C@H]2C[C@@H](O)C3)cc1)N1CCC(Nc2ccc(C(F)(F)F)cn2)CC1` [Example 1.180], the pIC50 was 7.00 to 8.30.

As for `O=S(=O)(c1ccc(N2CC[C@H](O)[C@@H](CO)C2)cc1)N1CCC(Nc2ccc(C(F)(F)F)cn2)CC1` [Example 1.181], the pIC50 is 7.00 to 8.30.

Consider `CC1(O)CCN(c2ccc(S(=O)(=O)N3CCC(Nc4ccc(C(F)(F)F)cn4)CC3)cc2)CC1` [Example 1.182], for which the pIC50 is 7.00 to 8.30.

For the compound `CC(=O)N1CCCC(c2ccc(S(=O)(=O)N3CCC(Nc4ccc(C(F)(F)F)cn4)CC3)cc2)C1` (stereo not drawn) [Example 1.183], the pIC50 is 7.00 to 8.30.

For `CC(=O)N1CCC(c2ccc(S(=O)(=O)N3CCC(Nc4ccc(C(F)(F)F)cn4)CC3)cc2)CC1` [Example 1.184], the pIC50 was 7.00 to 8.30.

Consider `O=S(=O)(c1ccc(N2CCC[C@@H](O)C2)cc1)N1CCC(Nc2ccc(C(F)(F)F)cn2)CC1` [Example 1.185], for which the pIC50 was 7.00 to 8.30.

For the compound `O=S(=O)(c1ccc(N2CC[C@@H](O)C2)cc1)N1CCC(Nc2ccc(C(F)(F)F)cn2)CC1` [Example 1.186], the pIC50 is 5.00 to 7.00.

Regarding `O=S(=O)(c1ccc(N2CC3(CC(O)C3)C2)cc1)N1CCC(Nc2ccc(C(F)(F)F)cn2)CC1` [Example 1.187], the pIC50 was 7.00 to 8.30.

Turning to `O=S(=O)(c1ccc(N2CCC(CO)CC2)cc1)N1CCC(Nc2ccc(C(F)(F)F)cn2)CC1` [Example 1.188], the pIC50 is 7.00 to 8.30.

`NS(=O)(=O)C1CCN(c2ccc(S(=O)(=O)N3CCC(Nc4ccc(C(F)(F)F)cn4)CC3)cc2)CC1` [Example 1.189]: the pIC50 was 5.00 to 7.00.

Consider `NC(=O)N[C@H]1CCN(c2ccc(S(=O)(=O)N3CCC(Nc4ccc(C(F)(F)F)cn4)CC3)cc2)C1` [Example 1.190], for which the pIC50 was 5.00 to 7.00.

In the case of `NC(=O)N[C@H]1CCCN(c2ccc(S(=O)(=O)N3CCC(Nc4ccc(C(F)(F)F)cn4)CC3)cc2)C1` [Example 1.191], the pIC50 was 5.00 to 7.00.

On to `CC(=O)N[C@H]1CCN(c2ccc(S(=O)(=O)N3CCC(Nc4ccc(C(F)(F)F)cn4)CC3)cc2)C1` [Example 1.192], for which the pIC50 is 5.00 to 7.00.

As for `CC(=O)N[C@H]1CCCN(c2ccc(S(=O)(=O)N3CCC(Nc4ccc(C(F)(F)F)cn4)CC3)cc2)C1` [Example 1.193], the pIC50 was 5.00 to 7.00.

`O=C(CO)N1CCN(c2ccc(S(=O)(=O)N3CCC(Nc4ccc(C(F)(F)F)cn4)CC3)cc2)CC1` [Example 1.194]: the pIC50 is 7.00 to 8.30.

Regarding `NC(=O)C1CCN(c2ccc(S(=O)(=O)N3CCC(Nc4ccc(C(F)(F)F)cn4)CC3)cc2)C1` (stereo not drawn) [Example 1.195], the pIC50 is 5.00 to 7.00.

Take `NC(=O)C1CN(c2ccc(S(=O)(=O)N3CCC(Nc4ccc(C(F)(F)F)cn4)CC3)cc2)C1` [Example 1.196]: the pIC50 is 5.00 to 7.00.

For `O=S(=O)(c1ccc(N2CC[C@H](O)C2)cc1)N1CCC(Nc2ccc(C(F)(F)F)cn2)CC1` [Example 1.197], the pIC50 is 5.00 to 7.00.

Regarding `O=S(=O)(c1ccc(N2CCC[C@H](O)C2)cc1)N1CCC(Nc2ccc(C(F)(F)F)cn2)CC1` [Example 1.198], the pIC50 was 7.00 to 8.30.

Regarding `CS(=O)(=O)N1CCCN(c2ccc(S(=O)(=O)N3CCC(Nc4ccc(C(F)(F)F)cn4)CC3)cc2)CC1` [Example 1.199], the pIC50 is 5.00 to 7.00.

Values taken from US12012403B2, “Aryl sulfonyl compounds as CCR6 inhibitors” (CHEMOCENTRYX, INC., priority 2021, dated 2024).
